Results: PMC4467156, “A new chemical inhibitor of angiogenesis and tumorigenesis that targets the VEGF signaling pathway upstream of Ras” (Oncotarget, 2015)
Structures can show the parent of a compound that is named as a salt.

How the values were obtained:
3T3-GFP cells = experiment: Scratch wound closure assay, 3T3-GFP; assay type: cell-based; details: wound closure after 24 h, 10% FCS, tested 3.125 μM to 100 μM
Source text: Using this assay, we screened the academic library of the University of Grenoble, which is composed of 1360 original molecules. Setting the threshold of significant responses at 75% of the maximal inhibition, we identified 80 inhibitory molecules. At this stage, we reasoned that molecules that would affect the cytoskeleton dynamics or the adhesion properties of any cell type would be positive in this assay but would not represent good candidates for further development. We thus decided to perform a secondary counterscreen of the first 80 selected compounds on GFP-expressing 3T3 fibroblasts (3T3-GFP) using the same scratch assay. We then focused our interest on the 5 molecules that inhibited more strongly HMEC-GFP than 3T3-GFP wound healing. […] We synthesized a series of 30 analogs and tested them at various concentrations both on HMEC-GFP and 3T3-GFP cells. […] Dansyl and naphthalimide aromatic groups, found in COB223 and COB227 respectively, appeared very efficient. The presence of the diaminomethyl group on dansyl is critical for the activity of COB223 as shown by the lower efficiency of COB235 (IC50 is 8 times higher than that of COB223). COB223 and COB227 contain a tert-butyloxycarbonyl function (BOC group) as a second hydrophobic group. Replacement of BOC by an amino group decreased the efficiency and the specificity (compare 05-102-L-B09 vs 05-06-L-D03, or COB227 vs COB228).
(§1) Confluent cell monolayers were wounded with a plastic pipet tip, washed gently with phosphate buffer saline (PBS) and treated with complete media containing molecules, as indicated. Cells were placed at 37°C into the incubator and photographed at indicated times. Quantitation of closure of the monolayer was performed using the NIH Image J program (http://rsbweb.nih.gov/ij/). Results are expressed as percentage of wound closure at t = 24 h as compared to the initial wound at t = 0 h.

HMEC-GFP cells = experiment: Scratch wound closure assay, HMEC-GFP; assay type: cell-based, human; details: for IC50: wound closure after 24 h, 10% FCS, tested 3.125 μM to 100 μM; for activity on HMEC-GFP wound closure: structure-activity relationship analysis
Source text: In order to adapt the endothelial scratch wounding assay to the constraints of high throughput screening, we decided to use an endothelial cell line rather than primary cultures for the sake of reproducibility. Since angiogenesis is triggered by capillary endothelial cells, we selected the HMEC-1 cell line which consists of human dermal microvascular endothelial cells stably expressing SV40 […] antigen. We infected this cell line with GFP-encoding retroviral particles and selected one clone (thereafter named HMEC-GFP) that presented a high level of fluorescence and a strong proliferation rate (doubling time in the presence of serum: 22 h). We controlled that GFP expression was stable over at least 50 passages and that these cells still expressed endothelial markers such as VE-cadherin and CD31. In a standard assay, HMEC-GFP cells were grown until confluence in 96-well plates in the presence of serum, scratched with the multi-tip dispenser of the HTS automat, gently rinsed twice to eliminate detached cells and cell debris that could liberate inflammatory and potentially angiogenic cytokines, and incubated for 24 h in the presence of serum and the compounds to be tested. Each well was photographed at time 0 h (after wounding) and 24 h under a motorized epifluorescence microscope and the digitized images were analyzed using Image J to determine the percentage of wound closure (Figure 1A, 1B). Under our standard conditions, the closure rate was 72 ± 4% in the positive controls and 27 ± 4.% in the negative controls.
as §1

LLC/2 tumor = experiment: Mouse LLC/2 tumor model; assay type: in vivo; details: mouse, in vivo
Method: We chose this model because of its rapid growth in syngenic mice and its strong dependence on angiogenesis. LLC/2 cells (10^6 in 50 μL medium) were subcutaneously injected into the right flank of […] mice. Seven days after tumor inoculation, mice were given an intraperitoneal (i.p.) injection of either solvent (1.7% DMSO) or COB223 every other day. Tumor size was measured with calipers, and the volume was calculated according to the formula (L*w^2)/2 where L and […] stand for length and width respectively. All mice were killed 21 days after tumor grafting.
Tumors collected after animal sacrifice were split into two parts and fixed either in 4% paraformaldehyde (v/v) or in formalin fixative for 24 h at 4°C and embedded in paraffin and then cut into 7 μm sections. Sections were stained using specific antibodies and the avidin–biotin immunoperoxidase detection method. Endogenous peroxidase activity was quenched by pretreatment with 3% (v/v) hydrogen peroxide in methanol for 20 min. For endothelial immunohistochemistry detection, CD31 antibody (MEC13.3, BD Pharmingen) was incubated for 2 h at room temperature. The tissue sections were subsequently washed three times with PBS and incubated with biotinylated rabbit anti-rat IgG (1:250 dilution in blocking solution; Sigma-Aldrich, Saint-Quentin Fallavier, France) for 1 h at room temperature. After three PBS washes, the slides were incubated with an avidin: biotin complex (Vectastain ABC kit; Vector Laboratories, Burlingame, CA) for 45 minutes. After a final PBS wash, the immunoreactive proteins were visualized after the addition of 3,3′-diaminobenzidine (Dako, Trappes, France) for 2 min and then counterstained with hematoxylin. Control sections were treated without primary antibody.

## 1,4-bis[3-(5-(Dimethylamino)naphthalene-1-sulfonamido)propylamino]piperazine [COB222]
3T3-GFP cells
  IC50: > 50 µM
HMEC-GFP cells
  IC50: > 50 µM

## NCCCN [1,3-diaminopropane, reference compound]
HMEC-GFP cells
  activity on HMEC-GFP wound closure: inactive
  IC50: > 100 µM

## CN(C)c1cccc2c(S(=O)(=O)NCCCO)cccc12 [COB220, 5-(Dimethylamino)-N-[3-hydroxypropyl]naphthalene-1-sulfonamide]
3T3-GFP cells
  IC50: > 50 µM
HMEC-GFP cells; Homo sapiens
  IC50: 40 µM

## CN(C)CCCNS(=O)(=O)c1cccc2c(N(C)C)cccc12 [COB221, 5-(Dimethylamino)-N-[3-(dimethylamino)propyl]naphthalene-1-sulfonamide]
3T3-GFP cells
  IC50: 150 µM
HMEC-GFP cells; Homo sapiens
  IC50: 20 µM

## CN(C)c1cccc2c(S(=O)(=O)N3CCN(CCOCCO)CC3)cccc12 [COB224, 2-(2-{4-[5-(Dimethylamino)naphthalene-1-sulfonyl]piperazin-1-yl}ethoxy)ethan-1-ol]
3T3-GFP cells
  IC50: > 50 µM
HMEC-GFP cells; Homo sapiens
  IC50: > 50 µM

## CN(C)c1cccc2c(S(=O)(=O)NCCOCCO)cccc12 [COB225, 2-{2-[5-(Dimethylamino)naphthalene-1-sulfonamido]ethoxy}ethan-1-ol]
3T3-GFP cells
  IC50: > 50 µM
HMEC-GFP cells; Homo sapiens
  IC50: > 50 µM

## NCCCN1C(=O)c2cccc3cccc(c23)C1=O [COB226, N-(3-Aminopropyl)-1,8-naphthalimide hydrochloride]
3T3-GFP cells
  IC50: > 50 µM
HMEC-GFP cells; Homo sapiens
  IC50: > 50 µM

## CC(C)(C)OC(=O)NCCCN1CCN(CCCN2C(=O)c3cccc4cccc(c34)C2=O)CC1 [COB227, N-{3-[4-(3-tert-Butoxycarbonylaminopropyl)piperazin-1-yl]propyl}-1,8-naphthalimide]
3T3-GFP cells
  IC50: 250 µM
HMEC-GFP cells; Homo sapiens
  IC50: 18 µM
LLC/2 tumor
  effect on in vivo LLC/2 tumor growth: no inhibition

## NCCCN1CCN(CCCN2C(=O)c3cccc4cccc(c34)C2=O)CC1 [COB228, N-{3-[4-(3-Aminopropyl)piperazin-1-yl]propyl}-1,8-naphthalimide hydrochloride]
3T3-GFP cells
  IC50: 40 µM
HMEC-GFP cells; Homo sapiens
  IC50: 25 µM

## CC(C)(C)OC(=O)NCCCN1CCN(CCCNS(=O)(=O)c2cccc3ccccc23)CC1 [COB235, tert-Butyl 3-(4-(3-(naphthalene-1-sulfonamido)propyl)piperazin-1-yl) propylcarbamate]
3T3-GFP cells
  IC50: > 50 µM
HMEC-GFP cells; Homo sapiens
  IC50: 40 µM

## Cc1ccc(S(=O)(=O)NCCCN2CCN(CCCNC(=O)OC(C)(C)C)CC2)cc1 [COB236, tert-Butyl 3-(4-(3-(4-methylphenylsulfonamido)propyl)piperazin-1-yl) propylcarbamate]
3T3-GFP cells
  IC50: > 50 µM
HMEC-GFP cells; Homo sapiens
  IC50: > 50 µM

## CC(C)(C)OC(=O)NCCCN1CCN(CCCNC(=O)c2ccccc2)CC1 [COB237, tert-Butyl 3-(4-(3-phenylamidopropyl)piperazin-1-yl)propylcarbamate]
3T3-GFP cells
  IC50: > 50 µM
HMEC-GFP cells; Homo sapiens
  IC50: > 50 µM

## CC(C)(C)OC(=O)NCCCN1CCN(CCCNC(=O)OCc2ccc([N+](=O)[O-])cc2)CC1 [COB238, 4-Nitrobenzyl N-[3-(4-{3-[(tert-butoxycarbonyl)amino]propyl}piperazin-1-yl)propyl] carbamate]
3T3-GFP cells
  IC50: > 50 µM
HMEC-GFP cells; Homo sapiens
  IC50: 20 µM

## CN(C)c1ccc2c3c(cccc13)C(=O)N(CCCN1CCN(CCCNC(=O)OC(C)(C)C)CC1)C2=O [COB274, N-{3-[4-(3-tert-Butoxycarbonylaminopropyl)piperazin-1-yl]propyl}-4-dimethylamino-1,8-naphthalimide]
HMEC-GFP cells; Homo sapiens
  IC50: > 100 µM

## CN(C)c1ccc2c3c(cccc13)C(=O)N(CCCNCCCNC(=O)OC(C)(C)C)C2=O [COB275, N-[3-((3-tert-Butoxycarbonylaminopropyl)amino)propyl]-4-dimethylamino-1,8-naphthalimide]
3T3-GFP cells
  IC50: 50 µM
HMEC-GFP cells; Homo sapiens
  IC50: 12.5 µM

## CN(C)c1ccc2c3c(cccc13)C(=O)N(CCCNC(=O)OC(C)(C)C)C2=O [COB276, N-(3-(tert-Butoxycarbonylamino)propyl)-4-dimethylamino-1,8-naphthalimide]
HMEC-GFP cells; Homo sapiens
  IC50: > 100 µM

## NCCCN1C(=O)c2cccc3cc([N+](=O)[O-])cc(c23)C1=O [COB277, N-(3-Aminopropyl)-3-nitro-1,8-naphtalimide hydrochloride]
HMEC-GFP cells; Homo sapiens
  IC50: > 100 µM

## O=C1c2cccc3cc([N+](=O)[O-])cc(c23)C(=O)N1CCCNCCCN1C(=O)c2cccc3cc([N+](=O)[O-])cc(c23)C1=O [COB278, Bis-[(3-nitro-1,8-naphthalimido)propyl]amine]
3T3-GFP cells
  IC50: 25 µM
HMEC-GFP cells; Homo sapiens
  IC50: 12.5 µM

## CC(C)(C)OC(=O)NCCCN1CCN(CCCN2C(=O)c3cccc4cc([N+](=O)[O-])cc(c34)C2=O)CC1 [COB280, N-{3-[4-(3-tert-Butoxycarbonylaminopropyl)piperazin-1-yl]propyl}-3-nitro-1,8-naphthalimide]
3T3-GFP cells
  IC50: > 100 µM
HMEC-GFP cells; Homo sapiens
  IC50: 25 µM

## CC(C)(C)OC(=O)NCCCNCCCN1C(=O)c2cccc3cc([N+](=O)[O-])cc(c23)C1=O [COB281, N-[3-((3-tert-Butoxycarbonylaminopropyl)amino)propyl]-3-nitro-1,8-naphthalimide]
3T3-GFP cells
  IC50: > 50 µM
HMEC-GFP cells; Homo sapiens
  IC50: 25 µM

## CC(C)(C)OC(=O)NCCCN1C(=O)c2cccc3cc([N+](=O)[O-])cc(c23)C1=O [COB282, N-(3-(tert-Butoxycarbonylamino)propyl)-3-nitro-1,8-naphthalimide]
HMEC-GFP cells; Homo sapiens
  IC50: > 100 µM

## CC(C)(C)OC(=O)NCCCN1C(=O)c2cccc3cccc(c23)C1=O [COB283, N-(3-(tert-Butoxycarbonylamino)propyl)-1,8-naphthalimide]
HMEC-GFP cells; Homo sapiens
  IC50: > 100 µM

## CN(C)c1cccc2c(S(=O)(=O)NCCOCCOCCNC(=O)OC(C)(C)C)cccc12 [COB296, tert-Butyl N-(2-[2-{2-(5-(dimethylamino)naphthalene-1-sulfonamido)ethoxy}ethoxy]ethyl) carbamate]
HMEC-GFP cells; Homo sapiens
  IC50: 5 µM

## NCCCCCCNS(=O)(=O)c1cccc2c(Cl)cccc12 [Compound W7, reference compound]
3T3-GFP cells
  IC50: 35 µM
HMEC-GFP cells; Homo sapiens
  IC50: 35 µM

## NCCN [Ethylene diamine, 1,2-ethylenediamine, reference compound]
HMEC-GFP cells
  activity on HMEC-GFP wound closure: inactive
  IC50: > 100 µM

## CN(C)c1cccc2c(S(=O)(=O)NCCCCCN)cccc12 [dansylcadaverine, monodansylcadaverine, reference compound]
3T3-GFP cells
  IC50: > 50 µM
HMEC-GFP cells; Homo sapiens
  IC50: > 50 µM
HMEC-GFP cells
  activity on HMEC-GFP wound closure: inactive

## NCCCCN [putrescine, 1,4-diaminobutane, reference compound]
HMEC-GFP cells; Homo sapiens
  IC50: > 100 µM
HMEC-GFP cells
  activity on HMEC-GFP wound closure: inactive

## NCCCNCCCCNCCCN [spermine, reference compound]
HMEC-GFP cells
  activity on HMEC-GFP wound closure: inactive

## N-(5-(Dimethylamino)naphthalene-1-sulfonamido)-1,3-diamino-propane [Compound 05-06-L-D03]
3T3-GFP cells
  IC50: 200 µM
HMEC-GFP cells
  IC50: 25 µM

## N-(5-(Dimethylamino)naphthalene-1-sulfonamido)-N'-(tert-butoxycarbonyl)-1,3-diamino-propane [Compound 05-102-B09]
3T3-GFP cells
  IC50: 150 µM
HMEC-GFP cells
  IC50: 18 µM
